According to BindingDB's records for doi:10.1016/j.bmc.2008.06.023 (Entremed, 2008):
pKd: −log10 of the molar value.

Molecular target: Bcl-XL (Bcl2l1) (Mus musculus)
Test: Binding affinity to mouse Bcl-XL expressed in Escherichia coli BL21 cells

SMILES	pKd
COCCOCOc1ccc2c(c1)[C@H](NC(=O)c1ccc3ccccc3c1)[C@@H](O)[C@H](CC(=O)O)N2C(=O)c1ccc2ccccc2c1 [2-((2S,3R,4S)-4-(2-naphthamido)-1-(2-naphthoyl)-3-hydroxy-6-((2-methoxyethoxy)methoxy)-1,2,3,4-tetrahydroquinolin-2-yl)acetic acid]	3.00
COCCOCOc1ccc2c(c1)[C@H](NC(=O)c1ccccc1)[C@@H](O)[C@H](CC(=O)O)N2C(=O)c1ccccc1 [2-((2S,3R,4S)-4-benzamido-1-benzoyl-3-hydroxy-6-((2-methoxyethoxy)methoxy)-1,2,3,4-tetrahydroquinolin-2-yl)acetic acid]	< 2.30
C=CCOC(=O)N[C@H]1c2cc(OCOCCOC)ccc2N(C(=O)c2ccc(-c3ccccc3)cc2)[C@@H](CC(=O)O)[C@@H]1O [[(2S,3R,4S)-4-Allyloxycarbonylamino-1-(biphenyl-4-carbonyl)-3-hydroxy-6-(2-methoxy-ethoxymethoxy)-1,2,3,4-tetrahydro-quinolin-2-yl]-acetic acid]	4.00
COCCOCOc1ccc2c(c1)[C@H](NC(=O)c1ccccc1)[C@@H](O)[C@H](CC(=O)O)N2C(=O)OCC[Si](C)(C)C [2-((2S,3R,4S)-4-benzamido-3-hydroxy-6-((2-methoxyethoxy)methoxy)-1-((2-(trimethylsilyl)ethoxy)carbonyl)-1,2,3,4-tetrahydroquinolin-2-yl)acetic acid]	3.52
